In one series the target is T1, CXXC5–DVL interaction (Homo sapiens, UniProt O14640).
T1 sequence (O14640 251-340 limits assumed): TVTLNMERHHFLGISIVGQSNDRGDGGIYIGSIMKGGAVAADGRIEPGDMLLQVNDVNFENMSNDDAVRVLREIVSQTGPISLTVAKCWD
Briefly: In vitro CXXC5–DVL binding assay (FITC-tagged PTD-DBMP on DVL PDZ domain). Conditions: dose–response curve, n = 3. As to the method: After the addition of 10 μM FITC-tagged PTD-DBMP to each well, each compound in the chemical library or control (DMSO) was treated to the well at a final concentration of 30 μM. The fluorescence intensity was measured using a Fluorstar Optima microplate reader (BGM Lab Technologies, Ortenberg, Germany). The binding values were calculated as a percent ratio of the fluorescent intensity normalized to the DMSO-treated control.

Series [1] can be described thus: In vivo pharmacokinetics of KY19382. Conditions: SD male rat; for AUC(0-t): 0 to 24 hour. As to the method: Animal studies were approved by the Institutional Animal Care and use committee at KRIBB. Briefly, specific pathogen-free male Sprague−Dawley (SD) rats (10 weeks old, body weight 298−315 g), purchased from Koatech Co. […] Dosing solutions were prepared in dimethylacetamide (DMAC)/polyethylene glycol 400 (PEG400) (20/80, v/v %) for administrations, and administered at dosing volumes of 5 and 10 ml/kg for iv and ip, respectively. A 100 μl aliquot of each plasma sample was prepared, and three volumes of ice-cold acetonitrile containing carbamazepine (internal standard) were added. The mixture was centrifuged at 910 g for 10 minutes, and the supernatant was subjected to LC−MS/MS analysis. Pharmacokinetic parameters were calculated by standard noncompartmental analysis of plasma concentration−time profiles using Kinetica 4.4.1 (Thermo Fisher Scientific, Inc., Woburn, MA, USA). The areas under the plasma concentration−time curves (AUC) were calculated by the linear−trapezoidal method. Systemic plasma clearance (CLP) was calculated as follows: CLP = dose/AUCinf. Terminal elimination half-life (t1/2) was calculated by the following equation: t1/2 = 0.693/λZ where λZ is the terminal disposition rate constant. Volume of distribution at steady state (VSS) was calculated as follows: VSS = dose × AUMCinf/(AUCinf)^2, where AUMCinf is the area under the first moment of the plasma concentration−time curve extrapolated to infinity. Bioavailability (F) was calculated as follows: F (%) = (AUCip/AUCiv)(doseiv/doseip) × 100.
Pharmacokinetic parameters were based on the mean plasma concentration-time profiles of SD male rat (n=3). Pharmacokinetic parameters were obtained by non-compartmental analysis of the plasma concentration-time profiles using KineticaTM 4.4.1 (Thermo Fisher Scientific, Inc., Woburn, MA, USA). AUClast was calculated from 0 to 24 hour. IV, intravenous; IP, intraperitoneal; Tmax, Time to maximum plasm concentration; Cmax, Maximum plasma concentration after intraperitoneal injection; AUC, Area under the curve; CL, clearance; Vss, Volume of distribution at steady state; T1/2, Elimination half-life; F, bioavailability.

Where [2] appears, read: Sprague-Dawley, plasma, IP, 5 mg/kg, mean.
The mark [3] stands for this setting: Sprague-Dawley, plasma, IV, 1 mg/kg, mean.

Regarding `CON=C1C(=C2C(=O)Nc3cc(Cl)c(Cl)cc32)Nc2ccccc21` [KY19382, 5,6-dichloroindirubin-3′-methoxime], the IC50 at CXXC5–DVL interaction worked out at 19 nM. Also, in series [1] (IP, 5 mg/kg, mean), the CL was 7.83 mL/min/kg. Further, the bioavailability in series [1] (Sprague-Dawley, plasma, intraperitoneal, IP 5 mg/kg vs IV 1 mg/kg, read-out: F (intraperitoneal bioavailability)) is 16.7%. In series [1] (setting [2]), the Cmax is 463 ng/mL, the Tmax was 1 h, the half-life is 16.2 h and the AUC(0-t) came out at 6560 ng·h/mL. In series [1] (setting [3]), this compound had a clearance of 2 mL/min/kg, a half-life of 3.33 h and an AUC(0-t) of 7830 ng·h/mL. For the same compound, the Vd in series [1] (Sprague-Dawley, plasma, IV, 1 mg/kg, mean, read-out: Vss) stood at 0.33 L/kg.
